From patent publication US6518243B1, “Desleucyl glycopeptide antibiotics and methods of making same” (Trustees of Princeton University, priority 1999, dated 2003)

What was measured:
[1] = test system: E. faecalis ATCC 29212; experiment: MIC determination in BHI media, OD600; assay type: cell-based; conditions: BHI + 0.1% casamino acids, 18 hours at 37° C., ≧90% OD600 inhibition
How it was run: (§1)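 Log-phase bacteria were diluted to about 5×10^5 CFU/ml and exposed to test compounds serially diluted in DMSO. Following 18 hours at 37° C, growth was read by plate absorbance to assign the MIC.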

[2] = test system: E. faecium ATCC 49624; experiment: MIC determination in BHI media, OD600; assay type: cell-based; conditions: BHI + 0.1% casamino acids, 18 hours at 37° C., ≧90% OD600 inhibition
How it was run: as §1

[3] = test system: S aureus ATCC 29213; experiment: MIC determination in BHI media, OD600; assay type: cell-based; conditions: BHI + 0.1% casamino acids, 18 hours at 37° C., ≧90% OD600 inhibition
How it was run: as §1

[4] = test system: S. Aureus ATCC 33591; experiment: MIC determination in BHI media, OD600; assay type: cell-based; conditions: BHI + 0.1% casamino acids, 18 hours at 37° C., ≧90% OD600 inhibition
How it was run: as §1

[5] = test system: E. faceium (ATCC 49624); experiment: Zone of inhibition screen, 96 well agar array format;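 note: score 3 means fourfold and score 4 sixteenfold the reference zone size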; assay type: cell-based, E. faecium; conditions: zone of inhibition relative to 1 mg/ml stock solution of p-chlorobiphenylvancomycin
Experimental: The antibacterial activity of each of the compounds against the bacterial strains E. faceium (ATCC 49624), S. epidermidis (ATCC 12228), S. aureus (ATCC 29213), E. faecalis (CL 4877) and E. faecalis (ATCC 292121) was tested. Each of the compounds was screened in a 96 will agar array format.

[6] = test system: S. epidermidis (ATCC 12228); experiment: as above; assay type: cell-based; set-up: scale not given here
How it was run: (§2)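 Each compound was tested for antibacterial activity against a shared bacterial panel, with screening carried out on agar in a 96-well array.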

[7] = test system: E. faecium CL 4931; experiment: MIC determination in BHI media, OD600; assay type: cell-based; conditions: BHI + 0.1% casamino acids, 18 hours at 37° C., ≧90% OD600 inhibition
How it was run: as §1

[8] = test system: E. faecalis (CL 4877); experiment: Zone of inhibition screen, 96 well agar array format; assay type: cell-based; set-up: scale not given here
How it was run: as §2

[9] = test system: S. aureus (ATCC 29213); experiment: as above; assay type: cell-based; set-up: scale not given here; conditions: zone of inhibition relative to 1 mg/ml p-chlorobiphenylvancomycin
How it was run: as §2

[10] = zone of inhibition relative to 1 mg/ml stock solution of p-chlorobiphenylvancomycin
[11] = zone of inhibition relative to 1 mg/ml p-chlorobiphenylvancomycin

| SMILES | MIC E. faecalis ATCC 29212 [1] [µg/mL] | MIC E. faecium ATCC 49624 [2] [µg/mL] | MIC S. aureus ATCC 29213 [3] [µg/mL] | MIC S. aureus ATCC 33591 [4] [µg/mL] | MIC E. faecium CL 4931 [7] [µg/mL] | zone score, E. faecium ATCC 49624 [5] | zone score, S. epidermidis ATCC 12228 [6, 10] | zone score, E. faecalis CL 4877 [8, 10] | zone score, E. faecalis CL 4877 [8, 11] | zone score, S. aureus ATCC 29213 [9] | zone score, S. epidermidis ATCC 12228 [6, 11] |
| --- | --- | --- | --- | --- | --- | --- | --- | --- | --- | --- | --- |
| C[C@H]1O[C@H](O[C@H]2[C@H](Oc3c4cc5cc3Oc3ccc(cc3Cl)[C@@H](O)[C@@H](NC(=O)CN3CCNCC3)C(=O)N[C@@H](CC(N)=O)C(=O)N[C@H]5C(=O)N[C@H]3C(=O)N[C@H](C(=O)N[C@@H](C(=O)O)c5cc(O)cc(O)c5-c5cc3ccc5O)[C@H](O)c3ccc(c(Cl)c3)O4)O[C@H](CO)[C@@H](O)[C@@H]2O)C[C@@](C)(NCc2ccc(-c3ccc(Cl)cc3)cc2)[C@H]1O [Compound 24] |  |  | 0.78 | 0.78 | 25 | 2 | 2 |  |  |  |  |
| CC1OC(OC2C(Oc3c4cc5cc3Oc3ccc(cc3Cl)C(O)C3NC(=O)C(NC(=O)C5NC(=O)C(CC(N)=O)NC(=O)C(NC(=O)CN5CCNCC5)C(O)c5ccc(c(Cl)c5)O4)c4ccc(O)c(c4)-c4c(O)cc(O)cc4C(C(=O)O)NC3=O)OC(CO)C(O)C2O)CC(C)(NCc2ccc(-c3ccc(Cl)cc3)cc2)C1O (stereo not drawn) [Compound 34] |  | 0.78 | 0.78 |  | 25 | 2 |  |  |  |  |  |
| CC1OC(OC2C(Oc3c4cc5cc3Oc3ccc(cc3Cl)C(O)C3NC(=O)C(NC(=O)C5NC(=O)C(CC(N)=O)NC(=O)C(NC(=O)C5CNC(=O)N5)C(O)c5ccc(c(Cl)c5)O4)c4ccc(O)c(c4)-c4c(O)cc(O)cc4C(C(=O)O)NC3=O)OC(CO)C(O)C2O)CC(C)(NCc2ccc(-c3ccc(Cl)cc3)cc2)C1O (stereo not drawn) [Compound 56-3] | 0.25 | 0.12 | 0.25 | 0.25 |  |  |  |  |  |  |  |
| CC1OC(OC2C(Oc3c4cc5cc3Oc3ccc(cc3Cl)C(O)C3NC(=O)C(NC(=O)C5NC(=O)C(CC(N)=O)NC(=O)C(NC(=O)C(N)CCCCNC(N)=O)C(O)c5ccc(c(Cl)c5)O4)c4ccc(O)c(c4)-c4c(O)cc(O)cc4C(C(=O)O)NC3=O)OC(CO)C(O)C2O)CC(C)(NCc2ccc(-c3ccc(Cl)cc3)cc2)C1O (stereo not drawn) [Compound 61] | 0.25 | 0.12 | 0.12 | 0.12 |  |  |  |  |  |  |  |
| CC1OC(OC2C(Oc3c4cc5cc3Oc3ccc(cc3Cl)C(O)C3NC(=O)C(NC(=O)C5NC(=O)C(CC(N)=O)NC(=O)C(NC(=O)C(N)CCCNC(N)=O)C(O)c5ccc(c(Cl)c5)O4)c4ccc(O)c(c4)-c4c(O)cc(O)cc4C(C(=O)O)NC3=O)OC(CO)C(O)C2O)CC(C)(NCc2ccc(-c3ccc(Cl)cc3)cc2)C1O (stereo not drawn) [Compound 62] | 0.25 | 0.12 | 0.25 | 0.25 |  |  |  |  |  |  |  |
| CC1OC(OC2C(Oc3c4cc5cc3Oc3ccc(cc3Cl)C(O)C3NC(=O)C(NC(=O)C5NC(=O)C(CC(N)=O)NC(=O)C(NC(=O)C(N)CCS(C)(=O)=O)C(O)c5ccc(c(Cl)c5)O4)c4ccc(O)c(c4)-c4c(O)cc(O)cc4C(C(=O)O)NC3=O)OC(CO)C(O)C2O)CC(C)(NCc2ccc(-c3ccc(Cl)cc3)cc2)C1O (stereo not drawn) [Compound 82] |  | 0.39 | 0.78 | 0.78 | 25 | 2 |  |  |  |  |  |
| CC1OC(OC2C(Oc3c4cc5cc3Oc3ccc(cc3Cl)C(O)C3NC(=O)C(NC(=O)C5NC(=O)C(CC(N)=O)NC(=O)C(NC(=O)C(CCC(N)=O)NC(=O)OC(C)(C)C)C(O)c5ccc(c(Cl)c5)O4)c4ccc(O)c(c4)-c4c(O)cc(O)cc4C(C(=O)O)NC3=O)OC(CO)C(O)C2O)CC(C)(NCc2ccc(-c3ccc(Cl)cc3)cc2)C1O (stereo not drawn) [Compound 136] |  | 0.78 | 0.78 | 0.78 | > 25 |  | 2 |  |  |  |  |
| CNC(C(=O)NC1C(=O)NC(CC(N)=O)C(=O)NC2C(=O)NC3C(=O)NC(C(=O)NC(C(=O)O)c4cc(O)cc(O)c4-c4cc3ccc4O)C(O)c3ccc(c(Cl)c3)Oc3cc2cc(c3OC2OC(CO)C(O)C(O)C2OC2CC(C)(NCc3ccc(-c4ccc(Cl)cc4)cc3)C(O)C(C)O2)Oc2ccc(cc2Cl)C1O)C(C)C (stereo not drawn) [Compound 328] | 0.39 | 0.12 | 0.25 | 0.25 |  |  |  |  |  |  |  |
| CNC(CC(C)C)C(=O)NC1C(=O)NC(CC(N)=O)C(=O)NC2C(=O)NC3C(=O)NC(C(=O)NC(C(=O)O)c4cc(O)cc(O)c4-c4cc3ccc4O)C(O)c3ccc(c(Cl)c3)Oc3cc2cc(c3OC2OC(CO)C(O)C(O)C2OC2CC(C)(NCc3ccc(-c4ccc(Cl)cc4)cc3)C(O)C(C)O2)Oc2ccc(cc2Cl)C1O (stereo not drawn) [Compound 329] | 0.12 | 0.031 | 0.25 | 0.12 |  |  |  |  |  |  |  |
| CCC(C)C(NC)C(=O)NC1C(=O)NC(CC(N)=O)C(=O)NC2C(=O)NC3C(=O)NC(C(=O)NC(C(=O)O)c4cc(O)cc(O)c4-c4cc3ccc4O)C(O)c3ccc(c(Cl)c3)Oc3cc2cc(c3OC2OC(CO)C(O)C(O)C2OC2CC(C)(NCc3ccc(-c4ccc(Cl)cc4)cc3)C(O)C(C)O2)Oc2ccc(cc2Cl)C1O (stereo not drawn) [Compound 330] | 0.78 | 0.12 | 0.25 | 0.25 |  |  |  |  |  |  |  |

More lines, main results first:

| MIC E. faecalis ATCC 29212 [1] [µg/mL] | MIC E. faecium ATCC 49624 [2] [µg/mL] | MIC S. aureus ATCC 29213 [3] [µg/mL] | MIC S. aureus ATCC 33591 [4] [µg/mL] | MIC E. faecium CL 4931 [7] [µg/mL] | SMILES | zone score, E. faecium ATCC 49624 [5] | zone score, S. epidermidis ATCC 12228 [6, 10] | zone score, E. faecalis CL 4877 [8, 10] | zone score, E. faecalis CL 4877 [8, 11] | zone score, S. aureus ATCC 29213 [9] | zone score, S. epidermidis ATCC 12228 [6, 11] |
| --- | --- | --- | --- | --- | --- | --- | --- | --- | --- | --- | --- |
| 0.25 | 0.12 | 0.25 | 0.25 |  | C[C@H]1O[C@H](O[C@H]2[C@H](Oc3c4cc5cc3Oc3ccc(cc3Cl)[C@@H](O)[C@@H](NC(=O)[C@H](N)Cc3ccccc3)C(=O)N[C@@H](CC(N)=O)C(=O)N[C@H]5C(=O)N[C@H]3C(=O)N[C@H](C(=O)N[C@@H](C(=O)O)c5cc(O)cc(O)c5-c5cc3ccc5O)[C@H](O)c3ccc(c(Cl)c3)O4)O[C@H](CO)[C@@H](O)[C@@H]2O)C[C@@](C)(NCc2ccc(-c3ccc(Cl)cc3)cc2)[C@H]1O [Compound 16] |  |  |  |  |  |  |
| 0.78 | 0.25 | 0.39 | 0.39 |  | CCC(C)C(N)C(=O)NC1C(=O)NC(CC(N)=O)C(=O)NC2C(=O)NC3C(=O)NC(C(=O)NC(C(=O)O)c4cc(O)cc(O)c4-c4cc3ccc4O)C(O)c3ccc(c(Cl)c3)Oc3cc2cc(c3OC2OC(CO)C(O)C(O)C2OC2CC(C)(NCc3ccc(-c4ccc(Cl)cc4)cc3)C(O)C(C)O2)Oc2ccc(cc2Cl)C1O (stereo not drawn) [Compound 37] |  |  |  |  |  |  |
|  | 0.78 |  |  | > 25 | CC(O)C(N)C(=O)NC1C(=O)NC(CC(N)=O)C(=O)NC2C(=O)NC3C(=O)NC(C(=O)NC(C(=O)O)c4cc(O)cc(O)c4-c4cc3ccc4O)C(O)c3ccc(c(Cl)c3)Oc3cc2cc(c3OC2OC(CO)C(O)C(O)C2OC2CC(C)(NCc3ccc(-c4ccc(Cl)cc4)cc3)C(O)C(C)O2)Oc2ccc(cc2Cl)C1O (stereo not drawn) [Compound 89] | 2 | 2 | 2 |  |  |  |
|  | 0.39 | 0.78 | 0.78 | 25 | C[C@H]1O[C@H](O[C@H]2[C@H](Oc3c4cc5cc3Oc3ccc(cc3Cl)[C@@H](O)[C@@H](NC(=O)c3cccc(N)c3)C(=O)N[C@@H](CC(N)=O)C(=O)N[C@H]5C(=O)N[C@H]3C(=O)N[C@H](C(=O)N[C@@H](C(=O)O)c5cc(O)cc(O)c5-c5cc3ccc5O)[C@H](O)c3ccc(c(Cl)c3)O4)O[C@H](CO)[C@@H](O)[C@@H]2O)C[C@@](C)(NCc2ccc(-c3ccc(Cl)cc3)cc2)[C@H]1O [Compound 257] |  |  |  | 2 | 2 | 2 |
| 0.25 | 0.12 | 0.25 | 0.25 |  | CC(C)CC(N)C(=O)NC1C(=O)NC(CC(N)=O)C(=O)NC2C(=O)NC3C(=O)NC(C(=O)NC(C(=O)O)c4cc(O)cc(O)c4-c4cc3ccc4O)C(O)c3ccc(c(Cl)c3)Oc3cc2cc(c3OC2OC(CO)C(O)C(O)C2OC2CC(C)(NCc3ccc(-c4ccc(Cl)cc4)cc3)C(O)C(C)O2)Oc2ccc(cc2Cl)C1O (stereo not drawn) [Compound 336] |  |  |  |  |  |  |
| 0.25 | 0.062 | 0.12 | 0.12 |  | CCCC(N)C(=O)NC1C(=O)NC(CC(N)=O)C(=O)NC2C(=O)NC3C(=O)NC(C(=O)NC(C(=O)O)c4cc(O)cc(O)c4-c4cc3ccc4O)C(O)c3ccc(c(Cl)c3)Oc3cc2cc(c3OC2OC(CO)C(O)C(O)C2OC2CC(C)(NCc3ccc(-c4ccc(Cl)cc4)cc3)C(O)C(C)O2)Oc2ccc(cc2Cl)C1O (stereo not drawn) [Compound 337] |  |  |  |  |  |  |
| 0.25 | 0.12 | 0.25 | 0.25 |  | CC(C)C(N)C(=O)NC1C(=O)NC(CC(N)=O)C(=O)NC2C(=O)NC3C(=O)NC(C(=O)NC(C(=O)O)c4cc(O)cc(O)c4-c4cc3ccc4O)C(O)c3ccc(c(Cl)c3)Oc3cc2cc(c3OC2OC(CO)C(O)C(O)C2OC2CC(C)(NCc3ccc(-c4ccc(Cl)cc4)cc3)C(O)C(C)O2)Oc2ccc(cc2Cl)C1O (stereo not drawn) [Compound 339] |  |  |  |  |  |  |
